Reference: ChEMBL document CHEMBL1201862, “PubChem BioAssay data set” (2004)
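Five concentrations, 48 hours, 96-well plates. GI50: concentration for 50% inhibition of growth.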 Calls of active or inactive are those of the source. Rule as the data show it: active = GI50 up to about 1.1 µM and inactive = higher.

Experiments:
Test in all cases: inhibition of tumour cell growth, NCI panel, 48 h
MDA-MB-435 = system: MDA-MB-435
K562 = system: K562
HL-60 = system: HL-60
UACC-257 = system: UACC-257
PC-3 = system: PC-3
MDA-MB-231 = system: MDA-MB-231
A549 = system: A549
SF-268 = system: SF-268
786-0 = system: 786-0
HCC 2998 = system: HCC 2998
HOP-62 = system: HOP-62
MOLT-4 = system: MOLT-4
OVCAR-4 = system: OVCAR-4
T47D = system: T47D
NCI-H23 = system: NCI-H23
M14 = system: M14
UACC-62 = system: UACC-62
MCF7 = system: MCF7
LOX IMVI = system: LOX IMVI
DU-145 = system: DU-145
IGROV-1 = system: IGROV-1
KM12 = system: KM12
MDA-N = system: MDA-N
SK-MEL-5 = system: SK-MEL-5
SNB-75 = system: SNB-75
SR = system: SR
OVCAR-8 = system: OVCAR-8
RXF 393 = system: RXF 393
SK-MEL-28 = system: SK-MEL-28
COLO 205 = system: COLO 205
Malme-3M = system: Malme-3M
RPMI-8226 = system: RPMI-8226
SW-620 = system: SW-620
HCT-15 = system: HCT-15
EKVX = system: EKVX
TK-10 = system: TK-10
CCRF-CEM = system: CCRF-CEM
HT-29 = system: HT-29
CAKI-1 = system: CAKI-1
SK-OV-3 = system: SK-OV-3
SF-295 = system: SF-295
SN12C = system: SN12C
HOP-92 = system: HOP-92
NCI-H460 = system: NCI-H460
UO-31 = system: UO-31
OVCAR-5 = system: OVCAR-5
SNB-19 = system: SNB-19
OVCAR-3 = system: OVCAR-3
HCT-116 = system: HCT-116
SK-MEL-2 = system: SK-MEL-2
NCI/ADR-RES = system: NCI/ADR-RES
A498 = system: A498

Measured: GI50

Fc1ccc(-c2sc(-c3ccsc3)cc2Cc2ccsc2)cc1
inactive: MDA-MB-435 > 10 µM | K562 > 10 µM | HL-60 > 10 µM | UACC-257 > 10 µM | PC-3 > 10 µM | MDA-MB-231 > 10 µM | A549 > 10 µM | SF-268 > 10 µM | 786-0 > 10 µM | HCC 2998 > 10 µM | HOP-62 > 10 µM | MOLT-4 > 10 µM | OVCAR-4 > 10 µM | T47D > 10 µM | NCI-H23 > 10 µM | M14 > 10 µM | UACC-62 > 10 µM | MCF7 > 10 µM | LOX IMVI > 10 µM | DU-145 > 10 µM | IGROV-1 > 10 µM | KM12 > 10 µM | MDA-N > 10 µM | SK-MEL-5 > 10 µM | SNB-75 > 10 µM | SR > 10 µM | OVCAR-8 > 10 µM | RXF 393 > 10 µM | SK-MEL-28 > 10 µM | COLO 205 > 10 µM | Malme-3M > 10 µM | RPMI-8226 > 10 µM | SW-620 > 10 µM | EKVX > 10 µM | TK-10 > 10 µM | CCRF-CEM > 10 µM | HT-29 > 10 µM | CAKI-1 > 10 µM | SK-OV-3 > 10 µM | SF-295 > 10 µM | SN12C > 10 µM | HOP-92 > 10 µM
> 10 µM: HCT-15

COc1cc(/C=C/c2ccc(S(N)(=O)=O)cc2)cc(OC)c1
inactive: NCI-H460 17.7 µM | UACC-257 20.3 µM | PC-3 19.5 µM | MDA-MB-231 16.9 µM | 786-0 21.5 µM | UO-31 21.9 µM | HCC 2998 19.7 µM | HOP-62 28.9 µM | T47D 8.18 µM | M14 51.2 µM | MCF7 24.6 µM | DU-145 32.7 µM | OVCAR-5 39.8 µM | MDA-N 20.6 µM | SNB-19 39.1 µM | OVCAR-3 16.5 µM | SK-MEL-5 16.2 µM | HCT-116 14.5 µM | SNB-75 14.1 µM | RXF 393 13.1 µM | SK-MEL-28 23.9 µM | COLO 205 15.9 µM | Malme-3M 14.8 µM | SK-MEL-2 18.7 µM | EKVX 22.4 µM | TK-10 22.4 µM | NCI/ADR-RES 23.8 µM | SK-OV-3 24.5 µM | SF-295 22.6 µM | SN12C 22.6 µM | A498 18.2 µM
